In patent US20050197350A1, “Novel quinoline, tetrahydroquinazoline, and pyrimidine derivatives and methods of treatment related to the use thereof” (TAISHO PHARMACEUTICAL CO., LTD., priority 2003, published 2005):

System: MCH receptors
Experiment: MCH receptor activity class (method not given)
Conditions: MCH receptor; class by percent of control at 10^-7 M or IC50

Row | SMILES | class
1 | COc1cc(COC(=O)N[C@H]2CC[C@@H](Nc3cc(N(C)C)c4ccccc4n3)CC2)c([N+](=O)[O-])cc1OC [compound 119] | 3 (Class 3 The value of percent of control at 10^−7 M was more than 60% or the value of IC50 was more than 200 nM.)
2 | CN(C)c1cc(N[C@H]2CC[C@@H](NC(=O)CCCOc3ccccc3)CC2)nc2ccccc12 [compound 120] | 3 (Class 3 The value of percent of control at 10^−7 M was more than 60% or the value of IC50 was more than 200 nM.)
3 | COc1ccc(Br)c(C(=O)N[C@H]2CC[C@@H](Nc3cc(N(C)C)c4ccccc4n3)CC2)c1 [compound 121] | 3 (Class 3 The value of percent of control at 10^−7 M was more than 60% or the value of IC50 was more than 200 nM.)
4 | CN(C)c1cc(N[C@H]2CC[C@@H](NC(=O)COc3c(F)c(F)c(F)c(F)c3F)CC2)nc2ccccc12 [compound 122] | 3 (Class 3 The value of percent of control at 10^−7 M was more than 60% or the value of IC50 was more than 200 nM.)
5 | COc1ccc(CC(=O)N[C@H]2CC[C@@H](Nc3cc(N(C)C)c4ccccc4n3)CC2)cc1OC [compound 123] | 3 (Class 3 The value of percent of control at 10^−7 M was more than 60% or the value of IC50 was more than 200 nM.)
6 | CN(C)c1cc(N[C@H]2CC[C@@H](NC(=O)c3ccc(F)c(F)c3F)CC2)nc2ccccc12 [compound 124] | 3 (Class 3 The value of percent of control at 10^−7 M was more than 60% or the value of IC50 was more than 200 nM.)
7 | CN(C)c1cc(N[C@H]2CC[C@@H](NC(=O)C3CCCC3)CC2)nc2ccccc12 [compound 125] | 3 (Class 3 The value of percent of control at 10^−7 M was more than 60% or the value of IC50 was more than 200 nM.)
8 | CN(C)c1cc(N[C@H]2CC[C@@H](NC(=O)c3ccc(F)cc3F)CC2)nc2ccccc12 [compound 126, N-(cis-4-{[4-(dimethylamino)quinolin-2-yl]amino}cyclohexyl)-2,4-difluorobenzamide] | 3 (Class 3 The value of percent of control at 10^−7 M was more than 60% or the value of IC50 was more than 200 nM.)
9 | CN(C)c1cc(N[C@H]2CC[C@@H](NC(=O)CCc3ccccc3)CC2)nc2ccccc12 [compound 127] | 3 (Class 3 The value of percent of control at 10^−7 M was more than 60% or the value of IC50 was more than 200 nM.)
10 | CN(C)c1cc(N[C@H]2CC[C@@H](NC(=O)c3cc(F)c(F)c(F)c3F)CC2)nc2ccccc12 [compound 128] | 3 (Class 3 The value of percent of control at 10^−7 M was more than 60% or the value of IC50 was more than 200 nM.)
11 | CCOc1ccc2ccccc2c1C(=O)N[C@H]1CC[C@@H](Nc2cc(N(C)C)c3ccccc3n2)CC1 [compound 129] | 3 (Class 3 The value of percent of control at 10^−7 M was more than 60% or the value of IC50 was more than 200 nM.)
12 | CN(C)c1cc(N[C@H]2CC[C@@H](NC(=O)c3c(F)c(F)c(F)c(F)c3F)CC2)nc2ccccc12 [compound 130] | 3 (Class 3 The value of percent of control at 10^−7 M was more than 60% or the value of IC50 was more than 200 nM.)
13 | CN(C)c1cc(N[C@H]2CC[C@@H](NC(=O)c3ccc(SC(F)(F)F)cc3)CC2)nc2ccccc12 [compound 131] | 3 (Class 3 The value of percent of control at 10^−7 M was more than 60% or the value of IC50 was more than 200 nM.)
14 | CN(C)c1cc(N[C@H]2CC[C@@H](NC(=O)c3sc(Cl)c(Cl)c3Cl)CC2)nc2ccccc12 [compound 132] | 3 (Class 3 The value of percent of control at 10^−7 M was more than 60% or the value of IC50 was more than 200 nM.)
15 | CN(C)c1cc(N[C@H]2CC[C@@H](NC(=O)COc3cccc(Cl)c3)CC2)nc2ccccc12 [compound 133] | 1 (Class 1: The value of percent of control at 10^−7 M was less than 40% or the value of IC50 was less than 50 nM.)
16 | Cc1onc(-c2c(Cl)cccc2Cl)c1C(=O)N[C@H]1CC[C@@H](Nc2cc(N(C)C)c3ccccc3n2)CC1 [compound 134] | 1 (Class 1: The value of percent of control at 10^−7 M was less than 40% or the value of IC50 was less than 50 nM.)
17 | CN(C)c1cc(N[C@H]2CC[C@@H](NC(=O)c3cccnc3Oc3ccccc3)CC2)nc2ccccc12 [compound 135, N-(cis-4-{[4-(dimethylamino)quinolin-2-yl]amino}cyclohexyl)-2-phenoxynicotinamide] | 1 (Class 1: The value of percent of control at 10^−7 M was less than 40% or the value of IC50 was less than 50 nM.)
18 | CN(C)c1cc(N[C@H]2CC[C@@H](NC(=O)c3cccnc3Sc3ccccc3)CC2)nc2ccccc12 [compound 136] | 3 (Class 3 The value of percent of control at 10^−7 M was more than 60% or the value of IC50 was more than 200 nM.)
19 | Cc1ccc(Oc2ncccc2C(=O)N[C@H]2CC[C@@H](Nc3cc(N(C)C)c4ccccc4n3)CC2)cc1 [compound 137, N-(cis-4-{[4-(dimethylamino)quinolin-2-yl]amino}cyclohexyl)-2-(4-methylphenoxy)nicotinamide] | 1 (Class 1: The value of percent of control at 10^−7 M was less than 40% or the value of IC50 was less than 50 nM.)
20 | CCCN(CCC)S(=O)(=O)c1ccc(C(=O)N[C@H]2CC[C@@H](Nc3cc(N(C)C)c4ccccc4n3)CC2)cc1 [compound 138] | 3 (Class 3 The value of percent of control at 10^−7 M was more than 60% or the value of IC50 was more than 200 nM.)

Row | SMILES | class
21 | CN(C)c1cc(N[C@H]2CC[C@@H](NC(=O)C(C)(C)Oc3ccc(Cl)cc3)CC2)nc2ccccc12 [compound 139] | 3 (Class 3 The value of percent of control at 10^−7 M was more than 60% or the value of IC50 was more than 200 nM.)
22 | CN(C)c1cc(N[C@H]2CC[C@@H](NC(=O)c3cc(-c4ccc(Cl)cc4)oc3C(F)(F)F)CC2)nc2ccccc12 [compound 140] | 3 (Class 3 The value of percent of control at 10^−7 M was more than 60% or the value of IC50 was more than 200 nM.)
23 | CN(C)c1cc(N[C@H]2CC[C@@H](NC(=O)c3csc(-c4ccc5c(c4)CCO5)n3)CC2)nc2ccccc12 [compound 141] | 3 (Class 3 The value of percent of control at 10^−7 M was more than 60% or the value of IC50 was more than 200 nM.)
24 | CN(C)c1cc(N[C@H]2CC[C@@H](NC(=O)c3cc(C(C)(C)C)nn3Cc3ccc(Cl)cc3Cl)CC2)nc2ccccc12 [compound 142] | 3 (Class 3 The value of percent of control at 10^−7 M was more than 60% or the value of IC50 was more than 200 nM.)
25 | CN(C)c1cc(N[C@H]2CC[C@@H](NC(=O)C3=Cc4cc(Cl)ccc4OC3)CC2)nc2ccccc12 [compound 143] | 3 (Class 3 The value of percent of control at 10^−7 M was more than 60% or the value of IC50 was more than 200 nM.)
26 | CN(C)c1cc(N[C@H]2CC[C@@H](NC(=O)c3ccc(OC(F)(F)F)c(Cl)c3)CC2)nc2ccccc12 [compound 144] | 3 (Class 3 The value of percent of control at 10^−7 M was more than 60% or the value of IC50 was more than 200 nM.)
27 | Cc1cc(=O)oc2c(OCC(=O)N[C@H]3CC[C@@H](Nc4cc(N(C)C)c5ccccc5n4)CC3)cccc12 [compound 145] | 3 (Class 3 The value of percent of control at 10^−7 M was more than 60% or the value of IC50 was more than 200 nM.)
28 | CN(C)c1cc(N[C@H]2CC[C@@H](NC(=O)c3csc(-c4cccs4)n3)CC2)nc2ccccc12 [compound 146, N-(cis-4-{[4-(dimethylamino)quinolin-2-yl]amino}cyclohexyl)-2-(2-thienyl)-1,3-thiazole-4-carboxamide] | 1 (Class 1: The value of percent of control at 10^−7 M was less than 40% or the value of IC50 was less than 50 nM.)
29 | COc1cccc(C(=O)NC[C@H]2CC[C@@H](Nc3cc(N(C)C)c4ccccc4n3)CC2)c1 [compound 147, N-[(cis-4-{[4-(dimethylamino)quinolin-2-yl]amino}cyclohexyl)methyl]-3-methoxybenzamide] | 3 (Class 3 The value of percent of control at 10^−7 M was more than 60% or the value of IC50 was more than 200 nM.)
30 | CN(C)c1cc(N[C@H]2CC[C@@H](CNC(=O)c3cccc(Br)c3)CC2)nc2ccccc12 [compound 148] | 3 (Class 3 The value of percent of control at 10^−7 M was more than 60% or the value of IC50 was more than 200 nM.)
31 | CN(C)c1cc(N[C@H]2CC[C@@H](CNC(=O)c3ccc(Br)cc3)CC2)nc2ccccc12 [compound 149] | 3 (Class 3 The value of percent of control at 10^−7 M was more than 60% or the value of IC50 was more than 200 nM.)
32 | CN(C)c1cc(N[C@H]2CC[C@@H](CNC(=O)c3ccc4nonc4c3)CC2)nc2ccccc12 [compound 150, N-[(cis-4-{[4-(dimethylamino)quinolin-2-yl]amino}cyclohexyl)methyl]-2,1,3-benzoxadiazole-5-carboxamide] | 3 (Class 3 The value of percent of control at 10^−7 M was more than 60% or the value of IC50 was more than 200 nM.)
33 | CN(C)c1cc(N[C@H]2CC[C@@H](CNC(=O)c3cccc(Cl)c3)CC2)nc2ccccc12 [compound 151] | 3 (Class 3 The value of percent of control at 10^−7 M was more than 60% or the value of IC50 was more than 200 nM.)
34 | CN(C)c1cc(N[C@H]2CC[C@@H](CNC(=O)c3ccc(Cl)cc3)CC2)nc2ccccc12 [compound 152] | 3 (Class 3 The value of percent of control at 10^−7 M was more than 60% or the value of IC50 was more than 200 nM.)
35 | CN(C)c1cc(N[C@H]2CC[C@@H](CNC(=O)/C=C/c3ccccc3)CC2)nc2ccccc12 [compound 153] | 3 (Class 3 The value of percent of control at 10^−7 M was more than 60% or the value of IC50 was more than 200 nM.)
36 | CN(C)c1cc(N[C@H]2CC[C@@H](CNC(=O)c3ccc(Cl)c([N+](=O)[O-])c3)CC2)nc2ccccc12 [compound 154] | 3 (Class 3 The value of percent of control at 10^−7 M was more than 60% or the value of IC50 was more than 200 nM.)
37 | CN(C)c1cc(N[C@H]2CC[C@@H](CNC(=O)Cc3ccc(Cl)cc3)CC2)nc2ccccc12 [compound 155] | 3 (Class 3 The value of percent of control at 10^−7 M was more than 60% or the value of IC50 was more than 200 nM.)
38 | CN(C)c1cc(N[C@H]2CC[C@@H](CNC(=O)c3cccc(C#N)c3)CC2)nc2ccccc12 [compound 156] | 3 (Class 3 The value of percent of control at 10^−7 M was more than 60% or the value of IC50 was more than 200 nM.)
39 | CN(C)c1cc(N[C@H]2CC[C@@H](CNC(=O)c3cc(Cl)cc(Cl)c3)CC2)nc2ccccc12 [compound 157] | 3 (Class 3 The value of percent of control at 10^−7 M was more than 60% or the value of IC50 was more than 200 nM.)
